Data from patent US5436369A, “Alicyclic phospholipase A2 inhibitors” (Bristol-Myers Squibb Company, priority 1994, dated 1995).

Target: T1, PLA2 (Homo sapiens, UniProt P14555)
T1 construct: The enzyme is isolated from human platelets; from tissue; host or cells: human platelets
T1 sequence (P14555 21-144): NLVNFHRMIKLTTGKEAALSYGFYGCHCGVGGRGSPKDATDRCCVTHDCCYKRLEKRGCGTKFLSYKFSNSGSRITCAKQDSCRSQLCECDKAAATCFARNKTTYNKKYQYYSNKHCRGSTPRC
Experiment: PLA2 Inhibition Assay (14C-oleate labeled E. coli membrane substrate)
Type: biochemical
Conditions: enzyme isolated from human platelets
Procedure: The method used is similar to that reported by Franson, et al. [Jesse, R. L. and Franson R. C., Biochim. Biophys. Acta 575:467-470 (1979); Franson, R. C., Patriarca, P., and Elsback, P., J. Lipid Res. 15: 380-388 (1974)]. The enzyme is isolated from human platelets. The substrate used consists of ^14 C-oleate labeled Escherichia coli membranes. E. coli cells are grown in the presence of ^14 C-oleic acid and then autoclaved to prepare the membranes.
Various concentrations of test compounds are pre-incubated with PLA2 (3.6 μg/mL in a buffer consisting of 25 mM HEPES (pH 7)), 150 mM NaCl, 5.0 mM CaCl2, and 10% DMSO (v/v, test compound solvent) at 37° C. for 7 minutes. The E. coli membrane substrate is then added (0.1 mM phospholipid, 0.005 μCi ^14 C) and the reaction is then incubated at 37° C. for 30 minutes. The reaction is then terminated by the addition of 1.9 mL tetrahydrofuran (THF), and the entire solution is applied to a solid-phase extraction column (aminopropyl resin, Analytichem). The column is rinsed with an additional 1 mL of THF. The free fatty acid product of the reaction is then eluted from the column with 1 mL of 2% acetic acid in THF and collected in a scintillation vial. The amount of free fatty acid product is determined by liquid scintillation counting. The amount of inhibition produced by the test compound is calculated by comparing the counts obtained in the presence of the compound to those obtained in its absence (solvent only). Background counts were determined by performing incubations in the absence of enzyme.
Percent inhibition is determined by the equation: [formula]

[1] = Table 3, Structure 18 (Type IB), 100 μM
[2] = Table 1, Structure 11 (Type IA), 100 μM
[3] = Table 2, Structure 14 (Type IA), 100 μM
[4] = Table 4, Structure 20 (Type IB), 100 μM

Structure (SMILES) | inhibition at 100 µM [2] [%] | inhibition at 100 µM [3] [%] | other results
CCCCCOc1ccc(/C=C(/C=C/C(=O)O)c2cccc(C(=O)O)c2)cc1OCCCCC [Structure 18c, (2E),(4Z)-4-(3-Carboxyphenyl)-5-(3,4-bispentyloxyphenyl)-2,4-pentadienoic acid] | – | – | inhibition at 100 µM [1]: 70%
CC1(C)CCC(C)(C)c2cc(/C=C(/C=C/C(=O)O)c3cccc(C(=O)O)c3)ccc21 [Structure 18a, (2E),(4Z)-4-(3-Carboxyphenyl)-5-(5,6,7,8-tetrahydro-5,5,8,8-tetramethyl-2-naphthalenyl)-2,4-pentadienoic acid] | – | – | inhibition at 100 µM [1]: 27%
CCCCCCCCCCOc1ccc(/C=C(/C=C\C(=O)O)c2cccc(C(=O)O)c2)cc1 [Structure 11d, (2Z),(4Z)-4-(3-Carboxyphenyl)-5-(4-decyloxyphenyl)-2,4-pentadienoic acid] | 100 | – | –
CCCCCCCCCCOc1ccc(/C=C(/C=CC(=O)O)c2cccc(C(F)(F)F)c2)cc1OCCCCCCCCCC [Structure 14e, (2Z),(4Z)-4-(3-Trifluoromethylphenyl)-5-(3,4-bisdecyloxyphenyl)-2,4-pentadienoic acid/(2E),(4Z)-4-(3-Trifluoromethylphenyl)-5-(3,4-bisdecyloxyphenyl)-2,4-pentadienoic acid] | – | 99 | –
CCCCCCCCCCOc1cccc(/C=C(/C=C\C(=O)O)c2cccc(C(F)(F)F)c2)c1 [Structure 14b, (2Z),(4Z)-4-(3-Trifluoromethylphenyl)-5-(3-decyloxyphenyl)-2,4-pentadienoic acid] | – | 100 | –
C/C(=C\CC(/C=C\C(=O)O)c1cccc(C(=O)O)c1)c1ccc2c(c1)C(C)(C)CCC2(C)C (racemic) [Structure 32c] | – | – | % Inhibition of PLA2 at 100 μm (Table 5, Structure 32 (Type IC), 100 μm as printed): 67%
CC1(C)CCC(C)(C)c2cc(CC/C=C(/CCC(=O)O)c3cccc(C(F)(F)F)c3)ccc21 [Structure 40, (Z)-4-(3-trifluoromethylphenyl)-7-(5,6,7,8-tetrahydro-5,5,8,8-tetramethyl-2-naphthalenyl)-4-heptenoic acid] | – | – | % Inhibition of PLA2 AT 100 μm (Table 6, Structure 40 (Type ID), 100 μm as printed): 79%
COc1ccc(CC/C=C(/C=C\C(=O)O)c2cccc(C(=O)O)c2)cc1C12CC3CC(CC(C3)C1)C2 [Structure 11j, (2Z),(4Z)-4-(3-Carboxyphenyl)-7-[3-(1-adamantyl)-4-methoxyphenyl]-2,4-heptadienoic acid] | 98 | – | –
CC1(C)CCC(C)(C)c2cc(CC/C=C(/C=C/C(=O)O)c3cccc(F)c3)ccc21 [Structure 20c, (2E),(4Z)-4-(3-Fluorophenyl)-7-(5,6,7,8-tetrahydro-5,5,8,8-tetramethyl-2-naphthalenyl)-2,4-heptadienoic acid] | – | – | inhibition at 100 µM [4]: 67%
COc1ccc(COc2cc(CC/C=C(/C=C\C(=O)O)c3cccc(C(F)(F)F)c3)ccc2C23CC4CC(CC(C4)C2)C3)cc1 [Structure 14t, (2Z),(4Z)-4-(3-Trifluoromethylphenyl)-7-[4-(1-adamantyl)-3-(4-methoxybenzyloxy)phenyl]-2,4-heptadienoic acid] | – | 100 | –
O=C(O)/C=C\C(=C\CCc1ccc(C23CC4CC(CC(C4)C2)C3)c(OCc2ccccc2)c1)c1cccc(C(F)(F)F)c1 [Structure 14u, (2Z),(4Z)-4-(3-Trifluoromethylphenyl)-7-[4-(1-adamantyl)-3-benzyloxyphenyl]-2,4-heptadienoic acid] | – | 100 | –
CC1(C)CCC(C)(C)c2cc(/C=C(/C=C\C(=O)O)c3cccc(C(=O)O)c3)ccc21 [Structure 11b, (2Z),(4Z)-4-(3-Carboxyphenyl)-5-(5,6,7,8-tetrahydro-5,5,8,8-tetramethyl-2-naphthalenyl)-2,4-pentadienoic acid] | 44 | – | –
CCCCCCCCCCOc1ccc(/C=C(/C=C\C(=O)O)c2cccc(C(F)(F)F)c2)cc1 [Structure 14a, (2Z),(4Z)-4-(3-Trifluoromethylphenyl)-5-(4-decyloxyphenyl)-2,4-pentadienoic acid] | – | 100 | –
COc1cc(CC/C=C(/C=C\C(=O)O)c2cccc(C(F)(F)F)c2)ccc1C12CC3CC(CC(C3)C1)C2 [Structure 14m, (2Z),(4Z)-4-(3-Trifluoromethylphenyl)-7-[4-(1-adamantyl)-3-methoxyphenyl]-2,4-heptadienoic acid] | – | 99 | –
CCCCCCCCCCOc1ccccc1/C=C(/C=C\C(=O)O)c1cccc(C(F)(F)F)c1 [Structure 14c, (2Z),(4Z)-4-(3-Trifluoromethylphenyl)-5-(2-decyloxyphenyl)-2,4-pentadienoic acid] | – | – | % Inhibition of PLA2 at 100 μM [3]: 92%
CCCCCCCCCCOc1ccc(/C=C(/C=C\C(=O)O)c2cccc(C(=O)O)c2)cc1OCCCCCCCCCC [Structure 11e, (2Z),(4Z)-4-(3-Carboxyphenyl)-5-(3,4-bisdecyloxyphenyl)-2,4-pentadienoic a cid] | 100 | – | –
CC(C)=CCC/C(C)=C/COc1ccc(/C=C(/C=C\C(=O)O)c2cccc(C(F)(F)F)c2)cc1 [Structure 14d] | – | 98 | –
CC1(C)CCC(C)(C)c2cc(CC/C=C(/C=C/C(=O)O)c3ccccc3)ccc21 [Structure 20d, (2E),(4Z)-4-Phenyl-7-(5,6,7,8-tetrahydro-5,5,8,8-tetramethyl-2-naphthalenyl)-2,4-heptadienoic acid] | – | – | inhibition at 100 µM [4]: 62%
CCCCCCCCCCOc1ccc(/C=C(/C=C/C(=O)O)c2cccc(C(=O)O)c2)cc1OCCCCCCCCCC [Structure 18d, (2E),(4Z)-4-(3-Carboxyphenyl)-5-(3,4-bisdecyloxyphenyl)-2,4-pentadienoic a cid] | – | – | inhibition at 100 µM [1]: 91%
COc1cc(CC/C=C(/C=C\C(=O)O)c2cccc(C(=O)O)c2)ccc1C12CC3CC(CC(C3)C1)C2 [Structure 11i, (2Z),(4Z)-4-(3-Carboxyphenyl)-7-[4-(1-adamantyl)-3-methoxyphenyl]-2,4-heptadienoic acid] | 100 | – | –
C\C(=C/C=C(/C=C\C(=O)O)c1cccc(C(=O)O)c1)c1ccc2c(c1)C(C)(C)CCC2(C)C [Structure 11h, (2Z),(4Z),(6E)-4-(3-Carboxyphenyl)-7-(5,6,7,8-tetrahydro-5,5,8,8-tetramethyl-2-naphthalenyl)-2,4,6-octatrienoic acid] | 97 | – | –
COc1ccc(CC/C=C(/C=C/C(=O)O)c2cccc(C(F)(F)F)c2)cc1C12CC3CC(CC(C3)C1)C2 [Structure 20e, (2Z),(4Z)-4-(3-Trifluoromethylphenyl)-7-[3-(1-adamantyl)-4-methoxyphenyl]-2,4-heptadienoic acid] | – | – | inhibition at 100 µM [4]: 81%
COc1ccc(CC/C=C(/C=C\C(=O)O)c2ccccc2)cc1C12CC3CC(CC(C3)C1)C2 [Structure 14l, (2Z),(4Z)-4-Phenyl-7-[3-(1-adamantyl)-4-methoxyphenyl]-2,4-heptadienoic acid] | – | 99 | –
CC1(C)CCC(C)(C)c2cc3cc(/C=C(/C=C\C(=O)O)c4cccc(C(=O)O)c4)ccc3cc21 [Structure 11c, (2Z),(4Z)-4-(3-Carboxyphenyl)-5-(5,6,7,8-tetrahydro-5,5,8,8-tetramethyl-2-anthracenyl)-2,4-pentadienoic acid] | 97 | – | –
CC1(C)CCC(C)(C)c2cc(CC/C=C(/C=C\C(=O)O)c3cccc(C(=O)O)c3)ccc21 [Structure 11g, (2Z),(4Z)-4-(3-Carboxyphenyl)-7-(5,6,7,8-tetrahydro-5,5,8,8-tetramethyl-2-naphthalenyl)-2,4-heptadienoic acid] | 58 | – | –
O=C(O)/C=C\C(=C\CCc1ccccc1)c1cccc(C(=O)O)c1 [Structure 11f, (2Z),(4Z)-4-(3-Carboxyphenyl)-7-phenyl-2,4-heptadienoic acid] | 15 | – | –
CC1(C)CCC(C)(C)c2cc(CC/C=C(/C=C/C(=O)O)c3ccc(F)cc3)ccc21 [Structure 20b] | – | – | inhibition at 100 µM [4]: 73%
O=C(O)/C=C\C(=C\CCc1ccc(C23CC4CC(CC(C4)C2)C3)c(OCc2cc(F)cc(F)c2)c1)c1cccc(C(F)(F)F)c1 [Structure 14s, (2Z),(4Z)-4-(3-Trifluoromethylphenyl)-7-[4-(1-adamantyl)-3-(3,5-difluorobenzyloxy)phenyl]-2,4-heptadienoic acid] | – | 100 | –
COc1ccc(CC/C=C(/C=C\C(=O)O)c2cccc(C(F)(F)F)c2)cc1C12CC3CC(CC(C3)C1)C2 [Structure 14k, (2Z),(4Z)-4-(3-Trifluoromethylphenyl)-7-[3-(1-adamantyl)-4-methoxyphenyl]-2,4-heptadienoic acid] | – | 99 | –
CC1(C)CCC(C)(C)c2cc3cc(/C=C(/C=C\C(=O)O)c4cccc(C(F)(F)F)c4)ccc3cc21 [Structure 14f, (2Z), (4Z)-4-(3-trifluoromethylphenyl)-5-(5,6,7,8-tetrahydro-5,5,8,8-tetramethyl-2-anthracenyl)-2,4-pentadienoic acid] | – | 71 | –
